Measurements taken from patent publication US12528812B2 (Genentech, Inc., priority 2020, dated 2026).
Like-named read-outs stand apart in the source and are kept apart here.

How the values were obtained:
[1] = molecular target: T1, recombinant human JAK1 kinase domain protein (Residues 854-1154) (Homo sapiens, UniProt P23458); assay: JAK1 biochemical assay (LabChip mobility shift, Ki); conditions: read-out: Biochem JAK1 Ki
T1 construct: human JAK1 kinase domain protein (Residues 854-1154); purchased Proteros Biostructures GmbH (Martinsried, Germany); host or cells: insect cells

[2] = tested on: IL-13-stimulated STAT6 phosphorylation in human lung bronchial epithelial BEAS-2B cell line; assay: P-STAT6 BEAS-2B + IL-13 cell assay; type: cell-based; conditions: BEAS2B cells, IL13 stimulation, read-out: Cellular JAK1 PSTAT6 BEAS2B + IL13
Procedure, shortened: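 Phospho-STAT6 (Tyr641) was quantified in lysates by MSD electrochemiluminescence after human IL-13 challenge (250 ng/mL stock, 15 min, 37 °C). Before that, BEAS-2B cells cultured 48 h had 1 h compound exposure over 10 concentrations. Percent of control was fitted to a four-parameter logistic model to give IC50.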

[3] = molecular target: Recombinant human JAK2 kinase domain protein (Residues 812-1132) (Homo sapiens, UniProt O60674); assay: JAK2 biochemical assay (LabChip mobility shift, Ki); conditions: Biochem JAK2 Ki
Chain of Recombinant human JAK2 kinase domain protein (Residues 812-1132) (O60674 812-1132): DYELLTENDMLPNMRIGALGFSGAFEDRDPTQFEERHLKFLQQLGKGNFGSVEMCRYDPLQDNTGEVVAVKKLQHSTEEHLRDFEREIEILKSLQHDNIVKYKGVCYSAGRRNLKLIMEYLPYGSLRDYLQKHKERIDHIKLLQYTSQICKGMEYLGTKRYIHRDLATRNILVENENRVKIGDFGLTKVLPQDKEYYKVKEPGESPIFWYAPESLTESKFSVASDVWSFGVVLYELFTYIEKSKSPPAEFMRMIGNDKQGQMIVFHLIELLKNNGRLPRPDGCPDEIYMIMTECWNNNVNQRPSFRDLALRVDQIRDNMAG

T1 sequence (P23458 854-1154): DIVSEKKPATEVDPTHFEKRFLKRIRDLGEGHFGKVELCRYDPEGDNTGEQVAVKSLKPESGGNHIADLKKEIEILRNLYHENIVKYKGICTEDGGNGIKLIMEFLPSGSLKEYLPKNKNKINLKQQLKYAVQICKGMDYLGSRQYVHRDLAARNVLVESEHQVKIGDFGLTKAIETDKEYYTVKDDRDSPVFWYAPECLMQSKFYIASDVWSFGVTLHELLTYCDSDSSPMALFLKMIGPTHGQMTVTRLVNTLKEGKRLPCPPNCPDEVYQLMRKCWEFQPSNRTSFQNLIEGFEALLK

Ki [1] | Ki [3] | Compound | IC50 ([2]; Homo sapiens, BEAS-2B) | IC50 [2]
0.84 nM | 0.89 nM | Cn1cc(NC(=O)c2cnn3cccnc23)c(-c2cc(Oc3cccc(CN4CCO[C@@H](CO)C4)c3)ccc2OC(F)F)n1 (stereo in doubt) [Example 75, N-[3-[2-(difluoromethoxy)-5-[3-[[rac-(2S)-2-(hydroxymethyl)morpholin-4-yl]methyl]phenoxy]phenyl]-1-methyl-pyrazol-4-yl]pyrazolo[1,5-a]pyrimidine-3-carboxamide] | 96 nM | –
0.17 nM | 0.17 nM | O=C(Nc1c[nH]nc1-c1cc(Oc2ccc3c(c2)CNCC3)ccc1OC(F)F)c1cnn2cccnc12 [Example 18, N-[3-[2-(difluoromethoxy)-5-(1,2,3,4-tetrahydroisoquinolin-7-yloxy)phenyl]-1H-pyrazol-4-yl]pyrazolo[1,5-a]pyrimidine-3-carboxamide] | 32 nM | –
1.6 nM | 1.5 nM | CN1CC(Cn2cc(Oc3ccc(OC(F)F)c(-c4nn(C)cc4NC(=O)c4cnn5cccnc45)c3)cn2)C1 [Example 127, N-[3-[2-(difluoromethoxy)-5-[1-[(1-methylazetidin-3-yl)methyl]pyrazol-4-yl]oxy-phenyl]-1-methyl-pyrazol-4-yl]pyrazolo[1,5-a]pyrimidine-3-carboxamide] | 46 nM | –
1.1 nM | 0.68 nM | CN(CCN1CCOCC1)C(=O)c1cccc(Oc2ccc(OC(F)F)c(-c3nn(C)cc3NC(=O)c3cnn4cccnc34)c2)c1 [Example 92, N-[3-[2-(difluoromethoxy)-5-[3-[methyl(2-morpholinoethyl)carbamoyl]phenoxy]phenyl]-1-methyl-pyrazol-4-yl]pyrazolo[1,5-a]pyrimidine-3-carboxamide] | 56 nM | –
1.2 nM | 0.72 nM | Cn1cc(NC(=O)c2cnn3cccnc23)c(-c2cc(Oc3cccc(CNC4COC4)c3)ccc2OC(F)F)n1 [Example 29, N-[3-[2-(difluoromethoxy)-5-[3-[(oxetan-3-ylamino)methyl]phenoxy]phenyl]-1-methyl-pyrazol-4-yl]pyrazolo[1,5-a]pyrimidine-3-carboxamide] | 62 nM | –
3 nM | 1.6 nM | CN1CC(n2cc(Oc3ccc(OC(F)F)c(-c4nn(C)cc4NC(=O)c4cnn5cccnc45)c3)cn2)C1 [Example 115, N-[3-[2-(difluoromethoxy)-5-[1-(1-methylazetidin-3-yl)pyrazol-4-yl]oxy-phenyl]-1-methyl-pyrazol-4-yl]pyrazolo[1,5-a]pyrimidine-3-carboxamide] | 48 nM | –
0.85 nM | 0.6 nM | CN1CC(O)(c2cccc(Oc3ccc(OC(F)F)c(-c4nn(CCO)cc4NC(=O)c4cnn5cccnc45)c3)c2)C1 [Example 97, N-[3-[2-(difluoromethoxy)-5[3-(3-hydroxy-1-methyl-azetidin-3-yl)phenoxy]phenyl]-1-(2-hydroxyethyl)pyrazol-4-yl]pyrazolo[1,5-a]pyrimidine-3-carboxamide] | 300 nM | –
2.2 nM | 1.4 nM | Cn1cc(NC(=O)c2cnn3cccnc23)c(-c2cc(Oc3cccnn3)ccc2OC(F)F)n1 [Example 204, N-[3-[2-(difluoromethoxy)-5-pyridazin-3-yloxy-phenyl]-1-methyl-pyrazol-4-yl]pyrazolo[1,5-a]pyrimidine-3-carboxamide] | 56 nM | –
2.6 nM | 2.5 nM | Cn1cc(NC(=O)c2cnn3cccnc23)c(-c2cc(Oc3cncc(CN)c3)ccc2OC(F)F)n1 [Example 77, N-[3-[5-[[5-(aminomethyl)-3-pyridyl]oxy]-2-(difluoromethoxy)phenyl]-1-methyl-pyrazol-4-yl]pyrazolo[1,5-a]pyrimidine-3-carboxamide] | 33 nM | –
1.5 nM | 0.83 nM | CN(C)CCN1CC(O)(Cn2cc(Oc3ccc(OC(F)F)c(-c4nn(C)cc4NC(=O)c4cnn5cccnc45)c3)cn2)C1 [Example 198, N-[3-[2-(difluoromethoxy)-5-[1-[[1-[2-(dimethylamino)ethyl]-3-hydroxy-azetidin-3-yl]methyl]pyrazol-4-yl]oxy-phenyl]-1-methyl-pyrazol-4-yl]pyrazolo[1,5-a]pyrimidine-3-carboxamide] | 1000 nM | –
5.5 nM | 3.1 nM | CN1CC(CC#N)(c2ccc(Oc3ccc(OC(F)F)c(-c4nn(C)cc4NC(=O)c4cnn5cccnc45)c3)cc2)C1 [Example 145, N-[3-[5-[4-[3-(cyanomethyl)-1-methyl-azetidin-3-yl]phenoxy]-2-(difluoromethoxy)phenyl]-1-methyl-pyrazol-4-yl]pyrazolo[1,5-a]pyrimidine-3-carboxamide] | 160 nM | –
0.46 nM | 0.23 nM | Cc1nn(C)cc1Oc1ccc(OC(F)F)c(-c2nn(C)cc2NC(=O)c2cnn3cccnc23)c1 [Example 153, N-[3-[2-(difluoromethoxy)-5-(1,3-dimethylpyrazol-4-yl)oxy-phenyl]-1-methyl-pyrazol-4-yl]pyrazolo[1,5-a]pyrimidine-3-carboxamide] | 27 nM | –
0.3 nM | 0.31 nM | O=C(Nc1cn(CCN[C@H]2C[C@H](O)C2)nc1-c1cc(Oc2ccccc2)ccc1OC(F)F)c1cnn2cccnc12 [Example 43, N-[3-[2-(difluoromethoxy)-5-phenoxy-phenyl]-1-[2-[(3-hydroxycyclobutyl)amino]ethyl]pyrazol-4-yl]pyrazolo[1,5-a]pyrimidine-3-carboxamide] | 24 nM | –
0.37 nM | 0.39 nM | Cn1cc(NC(=O)c2cnn3cccnc23)c(-c2cc(Oc3cccc([C@H]4CNCCO4)c3)ccc2OC(F)F)n1 (racemic) [Example 42, N-[3-[2-(difluoromethoxy)-5-[3-[rac-(2S)-morpholin-2-yl]phenoxy]phenyl]-1-methyl-pyrazol-4-yl]pyrazolo[1,5-a]pyrimidine-3-carboxamide] | 11 nM | –
2 nM | 1.5 nM | Cn1cc(NC(=O)c2cnn3cccnc23)c(-c2cc(Oc3cnn(C4CCNC4)c3)ccc2OC(F)F)n1 (racemic) [Example 139, N-[3-[2-(difluoromethoxy)-5-[1-[rac-(3R)-pyrrolidin-3-yl]pyrazol-4-yl]oxy-phenyl]-1-methyl-pyrazol-4-yl]pyrazolo[1,5-a]pyrimidine-3-carboxamide] | 70 nM | –
1.8 nM | 1.3 nM | CN(Cc1cccc(Oc2ccc(OC(F)F)c(-c3nn(C)cc3NC(=O)c3cnn4cccnc34)c2)c1)CC(C)(C)C#N [Example 21, N-[3-[5-[3-[[(2-cyano-2-methyl-propyl)-methyl-amino]methyl]phenoxy]-2-(difluoromethoxy)phenyl]-1-methyl-pyrazol-4-yl]pyrazolo[1,5-a]pyrimidine-3-carboxamide] | 110 nM | –

Compound | Ki [1] | Ki [3] | IC50 ([2]; Homo sapiens, BEAS-2B) | IC50 [2]
Cn1cc(NC(=O)c2cnn3cccnc23)c(-c2cc(Oc3cnn(CC4(O)CN5CCC4CC5)c3)ccc2OC(F)F)n1 (stereo not drawn) [Example 200, N-[3-[2-(difluoromethoxy)-5-[1-[(3-hydroxyquinuclidin-3-yl)methyl]pyrazol-4-yl]oxy-phenyl]-1-methyl-pyrazol-4-yl]pyrazolo[1,5-a]pyrimidine-3-carboxamide] | 3.6 nM | 1.6 nM | – | 780 nM
